Results reported in article PMC8142146 (Bioorganic chemistry, 2020).

Columns and labels:
Format in all cases: biochemical
PARP1 = PARP1 (Homo sapiens, UniProt P09874); assay: BPS PARP1 Chemiluminescent Activity Assay Kit
PARP2 = PARP2 (Homo sapiens, UniProt Q9UGN5); assay: PARP-isoform screening, Chemiluminescent Activity Assay Kit; conditions: at 0.5 μM concentration
TNKS1 (PARP5A) = molecular target: T1, TNKS1 (PARP5A) (Homo sapiens, UniProt O95271); assay: as above; conditions: Figure 5
T1 sequence (O95271 1-1327): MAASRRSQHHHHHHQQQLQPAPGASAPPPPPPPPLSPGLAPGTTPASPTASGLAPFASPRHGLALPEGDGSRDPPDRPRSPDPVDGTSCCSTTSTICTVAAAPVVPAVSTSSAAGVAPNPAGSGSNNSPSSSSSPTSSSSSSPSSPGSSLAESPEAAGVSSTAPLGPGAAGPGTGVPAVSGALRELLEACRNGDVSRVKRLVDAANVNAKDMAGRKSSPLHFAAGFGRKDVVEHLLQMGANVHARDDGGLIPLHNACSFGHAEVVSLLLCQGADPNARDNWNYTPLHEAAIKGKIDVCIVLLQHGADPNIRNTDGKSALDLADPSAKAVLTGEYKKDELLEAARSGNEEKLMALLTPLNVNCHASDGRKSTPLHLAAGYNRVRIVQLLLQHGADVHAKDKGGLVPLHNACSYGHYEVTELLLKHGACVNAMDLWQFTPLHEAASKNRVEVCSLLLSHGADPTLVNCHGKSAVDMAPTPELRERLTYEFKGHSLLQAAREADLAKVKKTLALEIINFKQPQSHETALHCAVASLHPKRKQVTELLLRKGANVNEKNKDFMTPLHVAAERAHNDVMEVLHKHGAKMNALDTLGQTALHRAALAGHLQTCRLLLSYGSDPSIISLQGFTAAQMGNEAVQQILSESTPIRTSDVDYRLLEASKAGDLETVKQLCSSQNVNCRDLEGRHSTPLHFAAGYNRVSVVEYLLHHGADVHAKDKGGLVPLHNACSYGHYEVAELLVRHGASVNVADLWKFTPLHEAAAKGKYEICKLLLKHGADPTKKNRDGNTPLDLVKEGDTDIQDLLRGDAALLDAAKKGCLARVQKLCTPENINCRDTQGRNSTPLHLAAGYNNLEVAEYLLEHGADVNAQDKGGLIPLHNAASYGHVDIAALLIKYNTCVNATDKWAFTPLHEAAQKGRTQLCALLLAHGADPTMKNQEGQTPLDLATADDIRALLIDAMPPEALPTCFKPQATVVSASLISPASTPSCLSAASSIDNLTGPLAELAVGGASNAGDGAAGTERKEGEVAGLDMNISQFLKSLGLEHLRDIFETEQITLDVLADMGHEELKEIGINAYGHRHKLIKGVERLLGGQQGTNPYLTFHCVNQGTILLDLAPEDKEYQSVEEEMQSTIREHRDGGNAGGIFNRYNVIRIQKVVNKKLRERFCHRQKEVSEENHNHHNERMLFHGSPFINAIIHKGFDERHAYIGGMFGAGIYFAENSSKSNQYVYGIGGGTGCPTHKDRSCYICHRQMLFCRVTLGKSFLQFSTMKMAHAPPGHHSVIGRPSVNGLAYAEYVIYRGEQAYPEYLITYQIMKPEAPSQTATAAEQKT

TNKS2 (PARP5B) = molecular target: T2, TNKS2 (PARP5B) (Homo sapiens, UniProt Q9H2K2); assay: as above; conditions: Figure 5
T2 sequence (Q9H2K2 1-1166): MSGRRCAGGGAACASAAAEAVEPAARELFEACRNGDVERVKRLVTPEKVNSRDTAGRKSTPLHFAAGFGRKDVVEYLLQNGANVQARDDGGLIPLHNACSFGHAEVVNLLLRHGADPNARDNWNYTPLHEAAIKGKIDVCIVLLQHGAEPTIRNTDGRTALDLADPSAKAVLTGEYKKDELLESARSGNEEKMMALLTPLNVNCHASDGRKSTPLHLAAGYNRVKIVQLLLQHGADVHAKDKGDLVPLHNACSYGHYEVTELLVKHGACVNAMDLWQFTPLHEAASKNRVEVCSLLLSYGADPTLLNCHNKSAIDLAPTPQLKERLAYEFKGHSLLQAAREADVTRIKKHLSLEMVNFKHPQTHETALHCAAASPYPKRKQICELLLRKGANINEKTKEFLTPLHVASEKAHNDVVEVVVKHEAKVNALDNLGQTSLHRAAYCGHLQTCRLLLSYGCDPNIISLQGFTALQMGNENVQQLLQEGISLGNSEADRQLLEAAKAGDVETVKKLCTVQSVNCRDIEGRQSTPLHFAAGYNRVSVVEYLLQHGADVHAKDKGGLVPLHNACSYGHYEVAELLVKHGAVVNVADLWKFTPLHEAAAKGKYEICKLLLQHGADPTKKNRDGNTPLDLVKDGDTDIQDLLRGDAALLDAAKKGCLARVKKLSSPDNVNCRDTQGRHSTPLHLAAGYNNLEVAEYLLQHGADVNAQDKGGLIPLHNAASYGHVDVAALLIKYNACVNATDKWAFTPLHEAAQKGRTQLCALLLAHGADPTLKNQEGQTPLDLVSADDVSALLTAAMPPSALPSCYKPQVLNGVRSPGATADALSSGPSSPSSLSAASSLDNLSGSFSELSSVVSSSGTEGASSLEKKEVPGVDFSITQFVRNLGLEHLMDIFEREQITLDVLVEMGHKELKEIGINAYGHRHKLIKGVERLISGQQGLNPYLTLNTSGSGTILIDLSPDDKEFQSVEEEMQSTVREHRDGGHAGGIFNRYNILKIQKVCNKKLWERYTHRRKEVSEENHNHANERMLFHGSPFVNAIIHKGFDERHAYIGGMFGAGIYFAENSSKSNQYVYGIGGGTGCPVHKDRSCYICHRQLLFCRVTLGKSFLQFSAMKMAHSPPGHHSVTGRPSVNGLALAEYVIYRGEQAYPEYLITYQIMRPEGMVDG

Chain of PARP2 (Q9UGN5 whole entry, canonical isoform): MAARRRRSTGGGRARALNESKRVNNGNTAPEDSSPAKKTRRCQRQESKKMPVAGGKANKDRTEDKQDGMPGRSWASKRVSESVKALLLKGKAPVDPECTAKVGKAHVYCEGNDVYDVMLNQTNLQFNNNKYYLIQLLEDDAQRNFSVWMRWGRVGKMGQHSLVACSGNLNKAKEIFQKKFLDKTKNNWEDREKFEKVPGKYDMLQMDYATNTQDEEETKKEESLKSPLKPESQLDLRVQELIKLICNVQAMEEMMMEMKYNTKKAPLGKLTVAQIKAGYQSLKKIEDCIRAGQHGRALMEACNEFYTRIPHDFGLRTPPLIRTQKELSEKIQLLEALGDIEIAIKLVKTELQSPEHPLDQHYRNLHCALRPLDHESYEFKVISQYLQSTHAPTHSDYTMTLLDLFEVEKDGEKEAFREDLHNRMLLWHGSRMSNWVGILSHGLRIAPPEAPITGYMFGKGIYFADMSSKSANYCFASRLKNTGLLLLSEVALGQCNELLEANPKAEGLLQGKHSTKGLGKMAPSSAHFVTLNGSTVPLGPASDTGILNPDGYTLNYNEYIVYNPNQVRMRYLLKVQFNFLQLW
Chain of PARP1 (P09874 whole entry, canonical isoform): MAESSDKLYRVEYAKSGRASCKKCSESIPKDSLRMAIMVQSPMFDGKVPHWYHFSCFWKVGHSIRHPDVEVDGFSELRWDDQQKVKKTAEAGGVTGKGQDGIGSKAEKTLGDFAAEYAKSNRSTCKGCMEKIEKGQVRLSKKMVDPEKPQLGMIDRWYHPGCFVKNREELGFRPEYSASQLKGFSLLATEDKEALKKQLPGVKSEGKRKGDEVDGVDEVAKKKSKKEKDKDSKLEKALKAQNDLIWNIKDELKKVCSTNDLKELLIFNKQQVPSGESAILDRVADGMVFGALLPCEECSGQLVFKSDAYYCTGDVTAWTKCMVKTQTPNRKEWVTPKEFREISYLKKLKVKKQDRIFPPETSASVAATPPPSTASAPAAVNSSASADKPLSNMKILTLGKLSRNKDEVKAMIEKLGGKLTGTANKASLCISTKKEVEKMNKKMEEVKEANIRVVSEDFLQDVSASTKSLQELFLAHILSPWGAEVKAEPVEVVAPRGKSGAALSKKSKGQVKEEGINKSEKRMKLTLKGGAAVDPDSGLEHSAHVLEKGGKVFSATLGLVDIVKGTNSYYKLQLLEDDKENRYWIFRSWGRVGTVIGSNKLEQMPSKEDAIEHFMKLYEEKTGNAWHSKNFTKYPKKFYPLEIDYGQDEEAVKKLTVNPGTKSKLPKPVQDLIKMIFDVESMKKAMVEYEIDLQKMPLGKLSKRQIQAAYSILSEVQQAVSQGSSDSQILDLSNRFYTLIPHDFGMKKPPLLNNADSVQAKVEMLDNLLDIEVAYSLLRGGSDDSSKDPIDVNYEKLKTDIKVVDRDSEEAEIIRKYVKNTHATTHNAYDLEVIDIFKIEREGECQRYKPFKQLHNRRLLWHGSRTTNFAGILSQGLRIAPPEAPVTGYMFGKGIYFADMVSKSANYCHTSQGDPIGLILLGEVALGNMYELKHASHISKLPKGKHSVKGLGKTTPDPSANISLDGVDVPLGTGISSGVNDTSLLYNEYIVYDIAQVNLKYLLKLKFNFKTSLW

Compound: NC(=O)c1cccc2c1O/C(=C\c1ccc(O)cc1)C(=O)N2 [Compound 49, (Z)-2-(4-Hydroxybenzylidene)-3-oxo-3,4-dihydro-2H-benzo[b][1,4]oxazine-8-carboxamide]
- IC50 (PARP1): 0.082 ± 0.045 µM
- PARP2 inhibition (PARP2): complete inhibition
- TNKS1 inhibition (TNKS1 (PARP5A)): substantially inhibited
- TNKS2 inhibition (TNKS2 (PARP5B)): substantially inhibited
